Target: T1, CK1α (Homo sapiens, UniProt P48729+Q96SW2)
T1 construct: expressed in transfected cells
Experiment: CK1α ePL degradation assay in MDS-L cells
Type: cell-based
Conditions: MDS-L cells expressing ePL-tagged CK1α; for DC50: concentration giving 50% CK1α degradation vs DMSO control; for Y: lowest measured CK1α level normalized to DMSO control
Method in brief: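 Degradation efficiency is reported as Y value, the minimum CK1α level (percent of DMSO control) across doses. Readout used InCELL Hunter luminescent detection after MDS-L cell exposure at 37° C for stated times, doses 10 μM down to 0.0005 μM in 3-fold steps.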

T1 sequence (P48729 whole entry): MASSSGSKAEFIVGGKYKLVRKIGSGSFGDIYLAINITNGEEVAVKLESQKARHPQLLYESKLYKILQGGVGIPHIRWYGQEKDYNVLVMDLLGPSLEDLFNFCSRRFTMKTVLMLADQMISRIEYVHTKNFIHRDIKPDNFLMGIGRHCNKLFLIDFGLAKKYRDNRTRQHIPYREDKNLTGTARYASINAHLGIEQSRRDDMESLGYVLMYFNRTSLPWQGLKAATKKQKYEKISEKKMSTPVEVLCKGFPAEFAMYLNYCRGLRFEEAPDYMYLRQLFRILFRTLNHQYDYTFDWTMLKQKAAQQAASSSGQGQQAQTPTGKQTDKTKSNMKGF
T1 sequence (Q96SW2 whole entry): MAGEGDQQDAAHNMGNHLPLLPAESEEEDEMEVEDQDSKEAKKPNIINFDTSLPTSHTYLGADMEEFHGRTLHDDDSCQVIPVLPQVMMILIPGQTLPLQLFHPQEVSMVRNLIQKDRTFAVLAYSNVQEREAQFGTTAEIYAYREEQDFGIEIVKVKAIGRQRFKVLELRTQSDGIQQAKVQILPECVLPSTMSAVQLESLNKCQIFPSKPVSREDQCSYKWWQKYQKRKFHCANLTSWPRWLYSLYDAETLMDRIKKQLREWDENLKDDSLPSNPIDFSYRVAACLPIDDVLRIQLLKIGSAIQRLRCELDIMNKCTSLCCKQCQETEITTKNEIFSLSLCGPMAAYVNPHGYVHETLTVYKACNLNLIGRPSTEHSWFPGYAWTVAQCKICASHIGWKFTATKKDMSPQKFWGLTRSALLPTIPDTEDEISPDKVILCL
T1 sequence (Q16531 whole entry partner): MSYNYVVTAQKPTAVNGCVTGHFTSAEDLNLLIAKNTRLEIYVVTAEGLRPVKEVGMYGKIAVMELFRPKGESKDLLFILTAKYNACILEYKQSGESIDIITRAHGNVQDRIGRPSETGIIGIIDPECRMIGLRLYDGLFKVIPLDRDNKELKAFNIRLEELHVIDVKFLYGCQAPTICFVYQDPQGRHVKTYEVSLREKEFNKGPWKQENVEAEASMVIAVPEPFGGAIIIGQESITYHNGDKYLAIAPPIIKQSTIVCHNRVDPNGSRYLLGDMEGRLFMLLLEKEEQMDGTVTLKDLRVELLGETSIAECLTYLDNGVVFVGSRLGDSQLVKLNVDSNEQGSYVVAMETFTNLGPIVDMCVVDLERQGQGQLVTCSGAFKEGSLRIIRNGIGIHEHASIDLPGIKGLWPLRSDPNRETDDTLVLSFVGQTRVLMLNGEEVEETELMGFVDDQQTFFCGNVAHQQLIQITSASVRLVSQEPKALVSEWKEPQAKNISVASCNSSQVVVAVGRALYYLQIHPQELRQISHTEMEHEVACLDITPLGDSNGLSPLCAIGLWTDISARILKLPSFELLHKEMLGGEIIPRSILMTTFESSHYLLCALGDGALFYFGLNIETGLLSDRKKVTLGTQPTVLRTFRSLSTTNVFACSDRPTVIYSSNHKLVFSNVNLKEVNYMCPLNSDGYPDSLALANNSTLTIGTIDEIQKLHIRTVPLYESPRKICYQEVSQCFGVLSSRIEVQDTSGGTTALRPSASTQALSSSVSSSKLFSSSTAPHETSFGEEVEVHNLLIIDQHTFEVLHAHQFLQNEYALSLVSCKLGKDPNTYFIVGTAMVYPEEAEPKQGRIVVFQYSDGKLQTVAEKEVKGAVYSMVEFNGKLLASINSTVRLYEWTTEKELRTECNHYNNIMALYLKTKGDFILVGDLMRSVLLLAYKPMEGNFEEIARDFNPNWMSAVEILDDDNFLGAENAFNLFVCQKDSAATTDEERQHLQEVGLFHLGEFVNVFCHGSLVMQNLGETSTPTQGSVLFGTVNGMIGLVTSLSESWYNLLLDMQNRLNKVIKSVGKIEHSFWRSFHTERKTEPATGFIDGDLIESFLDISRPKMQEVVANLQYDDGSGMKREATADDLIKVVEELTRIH

Row | Compound | DC50 | Y
1 | O=C1CCC(N2Cc3c(ccc(C(=O)N[C@H](c4ccccc4C(F)(F)F)C(F)(F)F)c3F)C2=O)C(=O)N1 (stereo partly drawn) [Example 98, 2-(2,6-dioxopiperidin-3-yl)-4-fluoro-1-oxo-N-((R)-2,2,2-trifluoro-1-(2-(trifluoromethyl)phenyl)ethyl)isoindoline-5-carboxamide] | < 100 nM | * (a Y value (shown as *) of 0<Y≤20%)
2 | O=C1CCC(N2Cc3cc(C(=O)N[C@H](c4ccccc4F)C(F)(F)F)c(F)cc3C2=O)C(=O)N1 (stereo partly drawn) [Example 99, 2-(2,6-dioxopiperidin-3-yl)-6-fluoro-1-oxo-N-((R)-2,2,2-trifluoro-1-(2-fluorophenyl)ethyl)isoindoline-5-carboxamide] | 100 to 500 nM | ** (a Y value (shown as**) of 20%<Y≤35%)
3 | O=C1CCC(N2Cc3c(ccc(C(=O)N[C@H](c4ccccc4F)C(F)(F)F)c3F)C2=O)C(=O)N1 (stereo partly drawn) [Example 100, 2-(2,6-dioxopiperidin-3-yl)-4-fluoro-1-oxo-N-((R)-2,2,2-trifluoro-1-(2-fluorophenyl)ethyl)isoindoline-5-carboxamide] | 100 to 500 nM | * (a Y value (shown as *) of 0<Y≤20%)
4 | O=C1CCC(N2Cc3cc(C(=O)N[C@H](c4ccc(O)cc4)C(F)(F)F)ccc3C2=O)C(=O)N1 (stereo partly drawn) [Example 101, 2-(2,6-dioxopiperidin-3-yl)-1-oxo-N-((R)-2,2,2-trifluoro-1-(4-hydroxyphenyl)ethyl)isoindoline-5-carboxamide] | < 100 nM | * (a Y value (shown as *) of 0<Y≤20%)
5 | CC(C)Oc1cccc([C@@H](NC(=O)c2ccc3c(c2)CN(C2CCC(=O)NC2=O)C3=O)C(F)(F)F)c1 (stereo partly drawn) [Example 102, 2-(2,6-dioxopiperidin-3-yl)-1-oxo-N-((R)-2,2,2-trifluoro-1-(3-isopropoxyphenyl)ethyl)isoindoline-5-carboxamide] | < 100 nM | ** (a Y value (shown as**) of 20%<Y≤35%)
6 | O=C1CC[C@H](N2Cc3cc(C(=O)N[C@H](c4ccc(F)cc4)C(F)(F)F)ccc3C2=O)C(=O)N1 [Example 103, 2-((S)-2,6-dioxopiperidin-3-yl)-1-oxo-N-((R)-2,2,2-trifluoro-1-(4-fluorophenyl)ethyl)isoindoline-5-carboxamide] | < 100 nM | * (a Y value (shown as *) of 0<Y≤20%)
7 | O=C1CC[C@@H](N2Cc3cc(C(=O)N[C@H](c4ccc(F)cc4)C(F)(F)F)ccc3C2=O)C(=O)N1 [Example 104, 2-((R)-2,6-dioxopiperidin-3-yl)-1-oxo-N-((R)-2,2,2-trifluoro-1-(4-fluorophenyl)ethyl)isoindoline-5-carboxamide] | < 100 nM | * (a Y value (shown as *) of 0<Y≤20%)
8 | O=C1CCC(N2Cc3c(ccc(C(=O)N[C@H](c4ccc(F)cc4F)C(F)(F)F)c3F)C2=O)C(=O)N1 (stereo partly drawn) [Example 105, N-((R)-1-(2,4-difluorophenyl)-2,2,2-trifluoroethyl)-2-(2,6-dioxopiperidin-3-yl)-4-fluoro-1-oxoisoindoline-5-carboxamide] | < 100 nM | * (a Y value (shown as *) of 0<Y≤20%)
9 | O=C1CCC(N2Cc3cc(C(=O)N[C@H](c4ncccc4Cl)C(F)(F)F)ccc3C2=O)C(=O)N1 (stereo partly drawn) [Example 106, N-((R)-1-(3-chloropyridin-2-yl)-2,2,2-trifluoroethyl)-2-(2,6-dioxopiperidin-3-yl)-1-oxoisoindoline-5-carboxamide] | < 100 nM | * (a Y value (shown as *) of 0<Y≤20%)
10 | O=C1CCC(N2Cc3c(ccc(C(=O)N[C@H](c4cccc(Cl)c4)C(F)(F)F)c3F)C2=O)C(=O)N1 (stereo partly drawn) [Example 107, N-((R)-1-(3-chlorophenyl)-2,2,2-trifluoroethyl)-2-(2,6-dioxopiperidin-3-yl)-4-fluoro-1-oxoisoindoline-5-carboxamide] | 100 to 500 nM | ** (a Y value (shown as**) of 20%<Y≤35%)
11 | O=C1CCC(N2Cc3c(ccc(C(=O)N[C@H](c4cccc(F)c4)C(F)(F)F)c3F)C2=O)C(=O)N1 (stereo partly drawn) [Example 108, 2-(2,6-dioxopiperidin-3-yl)-4-fluoro-1-oxo-N-((R)-2,2,2-trifluoro-1-(3-fluorophenyl)ethyl)isoindoline-5-carboxamide] | 100 to 500 nM | ** (a Y value (shown as**) of 20%<Y≤35%)

The next lines start with the values.

Row | DC50 | Y | Compound
12 | < 100 nM | * (a Y value (shown as *) of 0<Y≤20%) | O=C1CCC(N2Cc3cc(C(=O)N[C@H](c4ccc(Cl)cn4)C(F)(F)F)ccc3C2=O)C(=O)N1 (stereo partly drawn) [Example 109, N-((R)-1-(5-chloropyridin-2-yl)-2,2,2-trifluoroethyl)-2-(2,6-dioxopiperidin-3-yl)-1-oxoisoindoline-5-carboxamide]
13 | < 100 nM | * (a Y value (shown as *) of 0<Y≤20%) | O=C1CCC(N2Cc3cc(C(=O)N[C@H](c4ncccc4F)C(F)(F)F)ccc3C2=O)C(=O)N1 (stereo partly drawn) [Example 110, 2-(2,6-dioxopiperidin-3-yl)-1-oxo-N-((R)-2,2,2-trifluoro-1-(3-fluoropyridin-2-yl)ethyl)isoindoline-5-carboxamide]
14 | < 100 nM | * (a Y value (shown as *) of 0<Y≤20%) | O=C1CCC(N2Cc3cc(C(=O)N[C@H](c4ccc(F)cc4)C(F)F)ccc3C2=O)C(=O)N1 (stereo partly drawn) [Example 111, N-((R)-2,2-difluoro-1-(4-fluorophenyl)ethyl)-2-(2,6-dioxopiperidin-3-yl)-1-oxoisoindoline-5-carboxamide]
15 | < 100 nM | * (a Y value (shown as *) of 0<Y≤20%) | O=C1CCC(N2Cc3c(ccc(C(=O)N[C@H](c4ccc(F)cc4)C(F)F)c3F)C2=O)C(=O)N1 (stereo partly drawn) [Example 112, N-((R)-2,2-difluoro-1-(4-fluorophenyl)ethyl)-2-(2,6-dioxopiperidin-3-yl)-4-fluoro-1-oxoisoindoline-5-carboxamide]
16 | 100 to 500 nM | ** (a Y value (shown as**) of 20%<Y≤35%) | O=C1CCC(N2Cc3c(ccc(C(=O)N[C@H](c4ccc(F)c(F)c4)C(F)(F)F)c3F)C2=O)C(=O)N1 (stereo partly drawn) [Example 113, N-((R)-1-(3,4-difluorophenyl)-2,2,2-trifluoroethyl)-2-(2,6-dioxopiperidin-3-yl)-4-fluoro-1-oxoisoindoline-5-carboxamide]
17 | < 100 nM | * (a Y value (shown as *) of 0<Y≤20%) | O=C1CCC(N2Cc3c(ccc(C(=O)N[C@H](c4ccccc4Cl)C(F)(F)F)c3F)C2=O)C(=O)N1 (stereo partly drawn) [Example 114, N-((R)-1-(2-chlorophenyl)-2,2,2-trifluoroethyl)-2-(2,6-dioxopiperidin-3-yl)-4-fluoro-1-oxoisoindoline-5-carboxamide]
18 | 100 to 500 nM | ** (a Y value (shown as**) of 20%<Y≤35%) | O=C1CCC(N2Cc3c(ccc(C(=O)N[C@H](c4ccc(F)cn4)C(F)(F)F)c3F)C2=O)C(=O)N1 (stereo partly drawn) [Example 115, 2-(2,6-dioxopiperidin-3-yl)-4-fluoro-1-oxo-N-((R)-2,2,2-trifluoro-1-(5-fluoropyridin-2-yl)ethyl)isoindoline-5-carboxamide]
19 | 100 to 500 nM | ** (a Y value (shown as**) of 20%<Y≤35%) | O=C1CCC(N2Cc3cc(C(=O)N[C@H](c4ncccc4C(F)(F)F)C(F)(F)F)ccc3C2=O)C(=O)N1 (stereo partly drawn) [Example 116, 2-(2,6-dioxopiperidin-3-yl)-1-oxo-N-((R)-2,2,2-trifluoro-1-(3-(trifluoromethyl)pyridin-2-yl)ethyl)isoindoline-5-carboxamide]

Reference: patent publication US11306101B2 (Celgene Corporation, priority 2019, dated 2022)
